Measurements: publication PMC6412891, “Synthesis and Biological Evaluation of Novel Thiazolyl-Coumarin Derivatives as Potent Histone Deacetylase Inhibitors with Antifibrotic Activity” (Molecules, 2019)

Legend:
[1] = Cytotoxicity assay (Alamar Blue) in cardiac fibroblasts; assay type: cell-based, rat; conditions: Sprague-Dawley, rat, primary neonatal rat cardiac fibroblasts (CFs), CFs treated for 48 h
Description: CFs were treated for 48 h with all the new CTz derivatives in a broad concentration range (100 μM^−1 mM), and their cytotoxicity was then evaluated. In Table 3 cytotoxic concentration 50 (CC50) values for each of the synthesized compounds are shown. […] When comparing the different ZBG the series 5 is the least cytotoxic for CFs, while series 8 was the most cytotoxic.
(§1) Sprague Dawley rats were obtained from the Animal Breeding Facility of the School of Chemical and Pharmaceutical Sciences at the University of Chile. All studies followed the Guide for the Care and Use of Laboratory Animals published by the US National Institutes of Health (NIH Publication 8th, 2011), and experimental protocols were approved by the University of Chile Institutional Ethics Review Committee. CF were isolated from of 2 or 3–day–old Sprague-Dawley rats and cultured as described previously. Briefly, the neonatal rats were decapitated and their hearts were extracted under aseptic environment. Atria were removed and ventricles were cut into small pieces (~1–2 mm) for posterior colagenase II digestion. The digestion yield was separated by 10 min centrifugation at 89×g. The pellet was resuspended in 10 mL of Dulbecco’s Modified Eagle’s Medium/Nutrient F-12 (DMEM-F12) supplemented with 10% FBS and antibiotics (100 μg/mL streptomycin and 100 units/mL penicillin) and cultured in a humid atmosphere of 5% CO2 and 95% O2 at 37°C until confluence (5 days). The purity of the CFs population was assessed through the expression of several markers. CFs had positive staining against vimentin (Santa Cruz Biotechnology), while being negative against sarcomeric actin and desmin (Sigma-Aldrich). Experiments were performed on cells at passage 1. Cells were cultured in 35-mm well plates and serum starved for 24 h prior to stimulation.
(§2) To evaluate cytotoxicity, CFs were seeded in 12 microwell plates at a ratio of 2 × 10^4 cell/cm^2, cultured in DMEM–F12 medium + 10% FBS, which was subsequently replaced by DMEM–F12. After 24 h of serum starvation derivatives were applied at proper times and concentrations in accordance to experimental procedures. Cell viability assays were carried out using Alamar Blue®, a nontoxic, cell permeable non fluorescent compound that is blue in color. Viable cells reduce resazurin to resorufin, which produces very bright red fluorescence which is used as a quantitative cell viability measure. 10 μL of 0.2 mg/mL Alamar Blue® was added into each well followed by incubation for 24 h. The fluorescence of Alamar Blue® was read using microplate reader at 570 excitation and emission to 595 nm. Cell survival was expressed as percentage over the untreated cells. To evaluate CFs proliferation assay, cells were seeded as mentioned before, and after serum starvation, they were stimulated by 10% fetal bovine serum (FBS), in presence/absence of CTz derivatives for 24 h, at concentrations according to experiment. Cell proliferation was quantified by Alamar Blue®, according to protocol mentioned before. Cell proliferation was expressed as percentage over the control FBS treated cells.

[2] = test system: HDACs HeLa cells nuclear extract; assay: HDAC inhibitory activity, fluorometric kit, HeLa cell nuclear extract; assay type: biochemical, human; conditions: HeLa cell nuclear extract as HDAC source
[3] = test system: neonatal rat cardiac fibroblasts (CFs); assay: FBS-induced cardiac fibroblast proliferation assay (Alamar Blue); assay type: cell-based; conditions: 10% FBS-induced CF proliferation, 48 h, read-out: Inhibition percentage of cell proliferation
Description: CFs were treated for 48 h with 10% fetal bovine serum (FBS), to induce CFs proliferation in presence/absence of each new CTz derivatives in a concentration range of 1–10 μM. In Table 4, the inhibition percentage of cell proliferation for each concentration of the synthesized compounds are shown. All derivatives inhibited CFs proliferation induce by serum.
as §1, with “Cells were cultured in 35-mm well plates and serum starved for 24 h prior to stimulation.” left out
as §2, with “10 μL of 0.2 mg/mL Alamar Blue® was added into each well followed by incubation for 24 h.” left out, “To evaluate CFs proliferation assay, cells were seeded as mentioned before, and after serum starvation, they were stimulated by 10% fetal bovine serum (FBS), in presence/absence of CTz derivatives for 24 h, at concentrations according to experiment.” left out

[4] = target: T1, HDAC6 human recombinant (Homo sapiens, UniProt Q9UBN7); assay: HDAC6 inhibitory activity, fluorometric kit; assay type: biochemical; conditions: Class II
T1 construct: purchased Enzo Life Science BML-AK516
T1 sequence (Q9UBN7 1-1215): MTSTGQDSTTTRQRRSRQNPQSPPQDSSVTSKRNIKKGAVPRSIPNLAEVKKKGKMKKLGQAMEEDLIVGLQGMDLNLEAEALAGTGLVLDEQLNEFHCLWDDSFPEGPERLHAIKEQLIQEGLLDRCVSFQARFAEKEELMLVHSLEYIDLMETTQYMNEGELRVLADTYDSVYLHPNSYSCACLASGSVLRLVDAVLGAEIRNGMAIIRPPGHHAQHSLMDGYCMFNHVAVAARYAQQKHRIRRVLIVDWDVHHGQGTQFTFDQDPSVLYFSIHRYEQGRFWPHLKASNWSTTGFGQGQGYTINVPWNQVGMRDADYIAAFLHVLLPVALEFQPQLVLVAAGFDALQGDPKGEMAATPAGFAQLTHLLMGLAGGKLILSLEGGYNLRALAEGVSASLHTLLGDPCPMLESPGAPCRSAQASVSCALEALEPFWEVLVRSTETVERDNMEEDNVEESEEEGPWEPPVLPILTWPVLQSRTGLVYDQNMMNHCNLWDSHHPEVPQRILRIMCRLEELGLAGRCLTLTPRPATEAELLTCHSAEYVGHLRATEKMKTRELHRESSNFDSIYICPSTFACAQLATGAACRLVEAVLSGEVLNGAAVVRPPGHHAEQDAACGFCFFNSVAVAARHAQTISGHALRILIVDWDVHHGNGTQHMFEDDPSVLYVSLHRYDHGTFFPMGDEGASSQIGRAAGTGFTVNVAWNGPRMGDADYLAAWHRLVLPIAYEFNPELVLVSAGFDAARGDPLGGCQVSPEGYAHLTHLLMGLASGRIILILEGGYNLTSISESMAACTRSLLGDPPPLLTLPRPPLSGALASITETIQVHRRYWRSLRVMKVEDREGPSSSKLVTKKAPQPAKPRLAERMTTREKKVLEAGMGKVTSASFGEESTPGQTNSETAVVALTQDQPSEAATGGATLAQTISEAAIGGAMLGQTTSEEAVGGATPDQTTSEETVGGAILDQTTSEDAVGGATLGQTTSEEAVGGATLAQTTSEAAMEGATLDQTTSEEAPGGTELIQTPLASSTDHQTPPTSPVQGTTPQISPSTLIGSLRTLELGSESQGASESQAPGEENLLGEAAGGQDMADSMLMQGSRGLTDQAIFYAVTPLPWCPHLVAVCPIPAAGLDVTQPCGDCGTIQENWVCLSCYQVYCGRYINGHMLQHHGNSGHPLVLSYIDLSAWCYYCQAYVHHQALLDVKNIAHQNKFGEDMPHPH

[5] = target: T2, HDAC1 human recombinant (Homo sapiens, UniProt Q13547); assay: HDAC1 inhibitory activity, fluorometric kit; assay type: biochemical; conditions: Class I
T2 construct: purchased Enzo Life Science BML-AK511
T2 sequence (Q13547 whole entry): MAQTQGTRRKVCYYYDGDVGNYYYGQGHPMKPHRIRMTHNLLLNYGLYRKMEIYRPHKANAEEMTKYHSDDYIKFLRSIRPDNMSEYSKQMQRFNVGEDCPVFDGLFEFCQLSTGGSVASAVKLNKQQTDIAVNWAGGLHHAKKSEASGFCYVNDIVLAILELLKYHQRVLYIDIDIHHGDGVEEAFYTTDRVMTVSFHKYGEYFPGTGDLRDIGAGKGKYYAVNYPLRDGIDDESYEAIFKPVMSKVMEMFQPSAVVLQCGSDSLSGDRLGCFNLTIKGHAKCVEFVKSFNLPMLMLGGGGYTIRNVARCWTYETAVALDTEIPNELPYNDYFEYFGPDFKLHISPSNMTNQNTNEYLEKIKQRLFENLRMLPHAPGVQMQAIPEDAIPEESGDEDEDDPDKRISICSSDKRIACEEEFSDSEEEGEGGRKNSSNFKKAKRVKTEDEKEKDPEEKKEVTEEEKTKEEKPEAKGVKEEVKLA

## O=C(Nc1nc(-c2cc3cc(Br)ccc3oc2=O)cs1)c1ccc(O)c(O)c1 [Compound 6b]
[1]
  CC50 at 48 h: 102 ± 10.3 µM
[2]
  IC50: 0.509 ± 0.0233 µM
[3]
  inhibition at 1 µM: 15.8 ± 3.6%
  inhibition at 5 µM: 40 ± 1.8%
  inhibition at 10 µM: 64.1 ± 1.7%
[4]
  IC50: 0.449 ± 0.0207 µM
[5]
  IC50: 0.613 ± 0.0328 µM

## COc1ccc2oc(=O)c(-c3csc(NC(=O)c4ccc(O)c(O)c4)n3)cc2c1 [Compound 6c]
[1]
  CC50 at 48 h: 124 ± 12.8 µM
[2]
  IC50: 0.477 ± 0.0275 µM
[3]
  inhibition at 1 µM: 10.9 ± 3.6%
  inhibition at 5 µM: 42.2 ± 1.8%
  inhibition at 10 µM: 64.9 ± 2.3%
[4]
  IC50: 0.581 ± 0.0275 µM
[5]
  IC50: 0.504 ± 0.0314 µM

## O=C(O)CCCCC(=O)Nc1nc(-c2cc3cc(Br)ccc3oc2=O)cs1 [Compound 7b]
[1]
  CC50 at 48 h: 80 ± 23.6 µM
[2]
  IC50: 5.4 ± 0.4 µM
[3]
  inhibition at 1 µM: 2.4 ± 1.1%
  inhibition at 5 µM: 36.1 ± 5.4%
  inhibition at 10 µM: 48 ± 4.8%
[4]
  IC50: 6.34 ± 0.466 µM
[5]
  IC50: 4.67 ± 0.362 µM

## COc1ccc2oc(=O)c(-c3csc(NC(=O)CCCCC(=O)O)n3)cc2c1 [Compound 7c]
[1]
  CC50 at 48 h: 99.5 ± 6.3 µM
[2]
  IC50: 4.7 ± 0.31 µM
[3]
  inhibition at 1 µM: 6 ± 0.4%
  inhibition at 5 µM: 33 ± 4.1%
  inhibition at 10 µM: 48.8 ± 5.2%
[4]
  IC50: 2.43 ± 0.157 µM
[5]
  IC50: 3.38 ± 0.302 µM
